The source made the active and inactive calls.

The target of assay [1] is Transthyretin (Homo sapiens, UniProt P02766). The assay is described as follows: Luminescence-based cell-based high throughput dose response assay to identify activators of Transthyretin (TTR) transcription. It counts as functional.
Assay [2] in a line: inhibitors of HIV Env-driven cell fusion, dose response, cherry-pick (AID 652057). It counts as functional, cell-based.
A short description of assay [3]: control 3'UTR Renilla luciferase suppression, dose response, counter-screen for Shn3 inhibitor project, cell-based, Clone20-Shn3RL, cherry-picked (AID 624133). It counts as functional. (A counterscreen serves to expose hits that act by an unwanted route or on another target.)
Assay [4] can be described thus: cells. It counts as functional, cell-based. The settings on record: HEK-CNG.
Assay [5] concerns the target COUP transcription factor 2 (Homo sapiens, UniProt P24468). The assay is described as follows: Luminescence-based cell-based high throughput dose response assay to identify inhibitors of COUP-TFII (NR2F2). It is filed as functional.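 Note: HEK293 cells transiently cotransfected with COUP-TFII expression vector and reporter; luciferase reporter luminescence driven by COUP-TFII from the pX2-168 reporter plasmid.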
Assay [6] can be described thus: off-target signal loss in HeLa-CEM21 co-culture – HeLa F-luc CTL cells, cherry-picked, counter-screen for HIV-1 Env fusion inhibitor project, dose response (AID 652040).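 Note: potency for signal decrease marking cytotoxic or nonspecific inhibition.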 It is filed as functional, cell-based.
Assay [7] addresses Galanin receptor type 3 (Homo sapiens, UniProt O60755). The assay can be described thus: Fluorescence-based cell-based primary high throughput dose response assay to identify antagonists of the Galanin Receptor 3 (GalR3). It is filed as functional.
The nature of assay [8]: HepG2 cell cytotoxicity, dose response, cytotoxicity control for Shn3 inhibitor project, CellTiter-Glo, cherry-picked (AID 624134). It counts as functional, cell-based.
Assay [9] is described as follows: Shn3 3'UTR reporter inhibitors, dose response, cell-based, Clone20 osteoblasts, firefly luciferase, cherry-picked (AID 624132).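 Note: firefly luciferase luminescence from reporter carrying the Shn3 3'UTR in osteoblasts.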 It is filed as functional.
Assay [10] is described as follows: inhibitors of clade B AD8 Env fusion, dose response, cell-based, cherry-pick (AID 652062).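 Note: luciferase signal from cell-cell fusion driven by HIV-1 clade B AD8 Env; potency is for inhibitors of fusion seen as a drop in luminescence.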 It is filed as functional.
The nature of assay [11]: ZM109 Env clade C HIV-1 fusion inhibitors, dose response, HeLa effector, CEM target cells, luciferase, cherry-pick (AID 652058). It is filed as functional, cell-based.
Assay [12] addresses Glutathione-S-transferase (Schistosoma japonicum, UniProt Q26513). The assay can be described thus: biotin-GST/anti-GST TR-FRET signal inhibitors, dose response, artefact control for Vif-APOBEC3G degradation inhibitor project, biochemical (AID 1117362). It counts as functional. (In general: TR-FRET usually uses a lanthanide donor and a delayed reading to cut background.)
The target in assay [13] is NAD-dependent protein deacylase sirtuin-5, mitochondrial (Homo sapiens, UniProt Q9NXA8). The assay can be described thus: SIRT5 desuccinylase inhibitors, dose response, biochemical, fluorescence imaging, cherry-pick, set 5 (AID 720591).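 Note: desuccinylation of succinyl peptide AMC substrate read as fluorescence after trypsin release; potency of inhibitors that lower fluorescence and may act on trypsin instead.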
Sequence of NAD-dependent protein deacylase sirtuin-5, mitochondrial (Q9NXA8 whole entry): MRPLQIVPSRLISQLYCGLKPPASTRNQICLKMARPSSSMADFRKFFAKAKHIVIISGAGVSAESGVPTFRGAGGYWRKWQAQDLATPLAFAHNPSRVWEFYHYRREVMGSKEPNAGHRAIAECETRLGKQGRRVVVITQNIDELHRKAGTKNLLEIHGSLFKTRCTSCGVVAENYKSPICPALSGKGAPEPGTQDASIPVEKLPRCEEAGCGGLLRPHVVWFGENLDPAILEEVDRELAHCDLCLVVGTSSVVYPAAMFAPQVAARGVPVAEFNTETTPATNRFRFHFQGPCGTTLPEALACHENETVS
Assay [14] is described as follows: PAX5 activity inhibitors, dose response, selectivity assay for PAX8 inhibitor project, cell-based, plate reader, dry powder samples (AID 743047).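 Note: HEK293 cells carrying a Pax5 driven CD19 promoter luciferase reporter; potency of inhibitors that lower reporter luminescence.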 It counts as functional.
Assay [15] in a line: PAX2 cell-based inhibition, dose response, selectivity assay for PAX8 inhibitor project, plate reader, dry powder samples (AID 743048).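 Note: HEK293 cells carrying a WT1 promoter luciferase reporter driven by expressed Pax2; potency is for inhibition of Pax2 driven reporter signal.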 It counts as functional.
Assay [16] addresses Paired box protein Pax-8 (Homo sapiens, UniProt Q06710). The assay can be described thus: inhibitors of PAX8-driven TPO luciferase reporter, dose response, RMG-I cells, cherry-pick (AID 687027).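 Note: luciferase reporter driven by Pax8 target thyroperoxidase promoter measured by SteadyGlo luminescence.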 It counts as functional, cell-based. Background: Reporter assays use an easily measured gene product as a stand-in for the process of interest.
Assay [17] in a line: cytotoxicity dependent on PAX8, dose response, cell-based, plate reader, dry powder (AID 743049). It counts as functional.
The test system of assay [18] is Vero. The assay is described as follows: cells. It counts as functional. The settings on record: Chlorocebus sabaeus.
Assay [19] deals with Vero. The assay is described as follows: cells. It counts as functional, cell-based. The settings on record: Chlorocebus sabaeus.
A short description of assay [20]: cells.
Assay [21] can be described thus: inhibitors of intracellular T. cruzi replication, confirmation, NIH3T3 host cells, beta-gal luminescence (AID 2044).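 Note: intracellular parasites grown in NIH/3T3 mouse fibroblasts as host cells; luminescent beta-galactosidase reporter signal from transgenic T. cruzi replicating inside host cells; inhibitors lower the luminescence signal.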 It is filed as functional, cell-based.
The nature of assay [22]: cytotoxicity toward NIH3T3 fibroblasts, dose response, counter-screen, cell-based, ATP luminescence, mouse fibroblasts (AID 2010).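 Note: cells exposed to compound for about 90 hours before reading.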 It counts as functional.
The target in assay [23] is Broad substrate specificity ATP-binding cassette transporter ABCG2 (Homo sapiens, UniProt Q9UNQ0). The assay can be described thus: ABCG2 efflux pump inhibitors, dose response, Ig-MXP3 cells, flow cytometry (AID 1690). It is filed as functional.
Sequence of Broad substrate specificity ATP-binding cassette transporter ABCG2 (Q9UNQ0 whole entry): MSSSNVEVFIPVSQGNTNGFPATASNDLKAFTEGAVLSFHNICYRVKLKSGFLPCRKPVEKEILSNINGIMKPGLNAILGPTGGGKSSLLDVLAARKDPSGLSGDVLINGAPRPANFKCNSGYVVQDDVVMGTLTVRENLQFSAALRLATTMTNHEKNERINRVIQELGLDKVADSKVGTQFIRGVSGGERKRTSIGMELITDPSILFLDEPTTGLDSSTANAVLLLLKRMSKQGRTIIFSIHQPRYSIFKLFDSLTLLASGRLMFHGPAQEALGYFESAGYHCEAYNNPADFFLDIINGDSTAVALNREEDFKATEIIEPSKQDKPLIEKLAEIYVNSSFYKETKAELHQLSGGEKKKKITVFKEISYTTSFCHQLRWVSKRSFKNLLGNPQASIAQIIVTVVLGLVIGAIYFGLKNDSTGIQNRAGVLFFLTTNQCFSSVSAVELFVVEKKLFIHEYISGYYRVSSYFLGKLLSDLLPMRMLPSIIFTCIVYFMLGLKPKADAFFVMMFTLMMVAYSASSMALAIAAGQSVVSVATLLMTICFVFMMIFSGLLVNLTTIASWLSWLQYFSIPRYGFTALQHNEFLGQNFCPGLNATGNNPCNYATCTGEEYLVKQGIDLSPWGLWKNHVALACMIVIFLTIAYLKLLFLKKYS
Assay [24] in a line: cells. The settings on record: HEK293.
A short description of assay [25]: HepG2 cell cytotoxicity, dose response, cytotoxicity control, ATP luminescence, cherry-pick, set 6 (AID 1053125). It is filed as functional, cell-based.
Assay [26] concerns the target ATP-dependent translocase ABCB1 (Homo sapiens, UniProt P08183). The assay is described as follows: ABCB1 efflux pump inhibitor potency, dose response, Jurkat-DNR cells, JC-1, flow cytometry (AID 1689). It counts as functional.
Assay [27] deals with T1, Calpain-2 catalytic subunit (Sus scrofa, UniProt P43367).
T1 sequence (P43367 whole entry): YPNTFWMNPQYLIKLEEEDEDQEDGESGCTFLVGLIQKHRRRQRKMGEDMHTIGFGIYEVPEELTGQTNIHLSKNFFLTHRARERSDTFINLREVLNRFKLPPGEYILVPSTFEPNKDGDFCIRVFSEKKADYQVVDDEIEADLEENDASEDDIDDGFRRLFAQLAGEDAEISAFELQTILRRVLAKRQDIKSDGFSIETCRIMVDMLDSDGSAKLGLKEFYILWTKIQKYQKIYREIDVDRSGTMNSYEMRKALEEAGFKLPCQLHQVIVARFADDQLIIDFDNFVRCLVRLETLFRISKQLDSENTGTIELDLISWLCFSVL
The assay can be described thus: pig calpain II inhibitor potency, dose response, biochemical, fluorogenic peptide substrate (AID 1420). It is filed as functional.

Assay [28] in a line: reduction of Shn3 3'UTR firefly luciferase signal, dose response, Schnurri-3 inhibitor project, cell-based, Clone20 osteoblasts, cherry-pick, set 2 (AID 720490).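 Note: actives lower the luminescence signal as inhibitors.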 It is filed as functional.
A short description of assay [29]: inhibitors of control Renilla luciferase reporter, dose response, counter-screen for Shn3 3'UTR targeting project, Clone20-Shn3RL cells, dual-Glo, cherry-pick, set 2 (AID 720724). It is filed as functional, cell-based. The settings on record: Dual-Go Shn3RL.
For assay [30], the target named is T2, Protein skinhead-1 (Caenorhabditis elegans, UniProt P34707).
T2 sequence (P34707 whole entry): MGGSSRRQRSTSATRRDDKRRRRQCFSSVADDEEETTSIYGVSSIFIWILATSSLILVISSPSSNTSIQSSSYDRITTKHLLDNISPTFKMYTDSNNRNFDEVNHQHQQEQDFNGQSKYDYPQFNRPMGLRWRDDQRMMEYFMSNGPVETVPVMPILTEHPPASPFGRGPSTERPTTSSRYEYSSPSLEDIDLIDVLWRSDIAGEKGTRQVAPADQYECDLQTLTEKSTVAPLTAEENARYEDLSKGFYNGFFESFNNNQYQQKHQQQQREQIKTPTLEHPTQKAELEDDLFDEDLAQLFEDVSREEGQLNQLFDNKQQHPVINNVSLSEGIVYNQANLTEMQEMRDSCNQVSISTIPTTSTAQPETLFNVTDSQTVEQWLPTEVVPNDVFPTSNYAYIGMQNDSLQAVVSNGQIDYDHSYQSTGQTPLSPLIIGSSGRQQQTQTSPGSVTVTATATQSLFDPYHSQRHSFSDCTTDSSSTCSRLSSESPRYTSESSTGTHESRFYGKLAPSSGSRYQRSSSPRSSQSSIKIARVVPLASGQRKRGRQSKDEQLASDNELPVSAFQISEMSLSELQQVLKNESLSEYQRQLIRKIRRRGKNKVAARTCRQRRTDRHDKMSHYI
It is filed as functional.

A short description of assay [31]: T. cruzi growth inhibition in host cells, dose response, cell-based, plate reader, dry powder, set 2 (AID 652275). It counts as functional.
Assay [32] can be described thus: Inhibition of Plasmodium falciparum NF54 Measured in Cell-Based System Using Plate Reader - 2138-11_Inhibitor_Dose_CherryPick_Activity. It is filed as functional.
Assay [33] is described as follows: growth inhibition of intracellular T. cruzi, dose response, cell-based, plate reader, dry powder samples (AID 651845). It counts as functional.
Assay [34] can be described thus: T. cruzi intracellular amastigote growth inhibition, dose response, imaging, CA-I/72 strain, bovine embryo skeletal muscle, dry powder (AID 651885). It is filed as functional, cell-based.
Assay [35] can be described thus: Inhibition of T. cruzi Tulahuen strain amastigotes in L-6 muscle cells Measured in Cell-Based and Microorganism Combination System Using Plate Reader - 2138-03_Inhibitor_Dose_CherryPick_Activity. As to conditions: Rattus norvegicus, L6. It counts as functional.
Assay [36] is described as follows: T. b. rhodesiense proliferation inhibition, dose response, STIB900 strain, plate reader, cherry pick (AID 651893). It is filed as functional, cell-based. The settings on record: Trypanosoma brucei.
Assay [37] in a line: cytotoxicity in L-6 rat myocytes, dose response, cytotoxicity control, cell-based, plate reader, cherry-pick (AID 651896). It is filed as functional.
A short description of assay [38]: NIH/3T3 fibroblast cytotoxicity, dose response, cytotoxicity control for T. cruzi growth inhibitor project, cell-based, cherry-pick samples, set 2 (AID 651817). It is filed as functional. The settings on record: NIH3T3.
The nature of assay [39]: intracellular Trypanosoma cruzi inhibitors in host cells – cell-based, plate reader, cherry-pick samples, set 3, dose response (AID 651818).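 Note: compounds incubated with infected cells for about four days.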 It is filed as functional.
A short description of assay [40]: L. donovani amastigote growth inhibition, dose response, axenic amastigotes, plate reader, cherry pick (AID 651891). It counts as functional, cell-based. The settings on record: Leishmania donovani.

Sequence of Paired box protein Pax-8 (Q06710 whole entry): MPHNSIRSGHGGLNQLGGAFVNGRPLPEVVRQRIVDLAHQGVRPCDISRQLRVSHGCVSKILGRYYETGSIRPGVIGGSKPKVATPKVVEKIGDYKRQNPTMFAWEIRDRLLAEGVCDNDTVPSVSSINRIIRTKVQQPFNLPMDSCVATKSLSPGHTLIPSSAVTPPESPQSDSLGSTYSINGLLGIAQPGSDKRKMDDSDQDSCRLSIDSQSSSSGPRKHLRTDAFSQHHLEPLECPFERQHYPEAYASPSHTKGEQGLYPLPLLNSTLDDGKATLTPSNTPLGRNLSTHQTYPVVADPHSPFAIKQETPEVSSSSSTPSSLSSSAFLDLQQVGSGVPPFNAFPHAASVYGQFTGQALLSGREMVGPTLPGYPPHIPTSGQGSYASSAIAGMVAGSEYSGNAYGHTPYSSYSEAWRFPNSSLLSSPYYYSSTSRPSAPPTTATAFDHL
Sequence of Galanin receptor type 3 (O60755 whole entry): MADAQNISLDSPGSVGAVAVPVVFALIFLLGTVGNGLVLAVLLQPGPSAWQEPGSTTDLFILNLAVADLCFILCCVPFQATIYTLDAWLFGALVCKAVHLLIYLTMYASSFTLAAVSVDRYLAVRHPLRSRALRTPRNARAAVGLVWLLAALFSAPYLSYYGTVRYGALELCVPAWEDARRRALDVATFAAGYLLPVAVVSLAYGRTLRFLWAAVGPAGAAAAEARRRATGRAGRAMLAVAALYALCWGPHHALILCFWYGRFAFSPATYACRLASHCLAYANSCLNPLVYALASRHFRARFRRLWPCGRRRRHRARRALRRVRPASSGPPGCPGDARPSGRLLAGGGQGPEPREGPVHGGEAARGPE
Sequence of ATP-dependent translocase ABCB1 (P08183 whole entry): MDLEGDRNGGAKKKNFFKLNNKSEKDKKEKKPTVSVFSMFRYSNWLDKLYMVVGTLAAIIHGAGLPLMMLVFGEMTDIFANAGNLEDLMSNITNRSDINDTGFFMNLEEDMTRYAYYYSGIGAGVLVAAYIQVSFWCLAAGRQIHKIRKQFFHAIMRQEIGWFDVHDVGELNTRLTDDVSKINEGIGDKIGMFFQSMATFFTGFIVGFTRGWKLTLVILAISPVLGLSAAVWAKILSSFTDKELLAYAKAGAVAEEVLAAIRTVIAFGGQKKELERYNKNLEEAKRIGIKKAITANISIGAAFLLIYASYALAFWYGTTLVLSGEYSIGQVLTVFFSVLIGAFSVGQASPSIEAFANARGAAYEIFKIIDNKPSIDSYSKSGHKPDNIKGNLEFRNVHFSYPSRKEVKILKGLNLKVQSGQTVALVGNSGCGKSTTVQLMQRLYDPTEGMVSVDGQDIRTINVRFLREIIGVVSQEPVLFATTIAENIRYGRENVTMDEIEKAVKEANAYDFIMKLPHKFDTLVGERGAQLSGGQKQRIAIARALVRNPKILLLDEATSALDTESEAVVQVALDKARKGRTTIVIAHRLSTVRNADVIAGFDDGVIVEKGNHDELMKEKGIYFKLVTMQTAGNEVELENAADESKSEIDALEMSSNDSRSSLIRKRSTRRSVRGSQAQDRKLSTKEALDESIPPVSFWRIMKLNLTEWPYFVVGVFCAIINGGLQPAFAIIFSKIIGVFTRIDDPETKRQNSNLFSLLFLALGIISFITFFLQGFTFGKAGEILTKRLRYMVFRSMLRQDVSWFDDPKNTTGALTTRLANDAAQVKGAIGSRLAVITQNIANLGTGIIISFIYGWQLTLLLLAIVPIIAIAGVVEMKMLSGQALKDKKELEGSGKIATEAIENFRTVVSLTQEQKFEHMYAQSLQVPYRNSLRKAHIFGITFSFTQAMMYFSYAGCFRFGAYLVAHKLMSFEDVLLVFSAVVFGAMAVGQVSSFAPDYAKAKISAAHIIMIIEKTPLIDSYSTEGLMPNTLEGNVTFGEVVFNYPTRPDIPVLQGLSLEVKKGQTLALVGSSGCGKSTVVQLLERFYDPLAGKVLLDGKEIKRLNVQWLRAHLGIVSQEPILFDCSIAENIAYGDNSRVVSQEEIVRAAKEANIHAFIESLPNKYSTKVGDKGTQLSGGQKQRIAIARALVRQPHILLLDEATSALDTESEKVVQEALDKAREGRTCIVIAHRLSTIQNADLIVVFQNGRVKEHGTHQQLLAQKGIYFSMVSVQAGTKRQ
Sequence of Glutathione-S-transferase (Q26513 whole entry): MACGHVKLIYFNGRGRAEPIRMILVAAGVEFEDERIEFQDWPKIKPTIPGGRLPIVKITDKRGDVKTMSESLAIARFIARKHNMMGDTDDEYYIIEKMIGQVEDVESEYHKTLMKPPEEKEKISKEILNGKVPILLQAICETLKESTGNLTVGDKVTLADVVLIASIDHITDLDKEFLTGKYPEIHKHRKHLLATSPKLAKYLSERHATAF
Sequence of COUP transcription factor 2 (P24468 whole entry, the tested form may be a part): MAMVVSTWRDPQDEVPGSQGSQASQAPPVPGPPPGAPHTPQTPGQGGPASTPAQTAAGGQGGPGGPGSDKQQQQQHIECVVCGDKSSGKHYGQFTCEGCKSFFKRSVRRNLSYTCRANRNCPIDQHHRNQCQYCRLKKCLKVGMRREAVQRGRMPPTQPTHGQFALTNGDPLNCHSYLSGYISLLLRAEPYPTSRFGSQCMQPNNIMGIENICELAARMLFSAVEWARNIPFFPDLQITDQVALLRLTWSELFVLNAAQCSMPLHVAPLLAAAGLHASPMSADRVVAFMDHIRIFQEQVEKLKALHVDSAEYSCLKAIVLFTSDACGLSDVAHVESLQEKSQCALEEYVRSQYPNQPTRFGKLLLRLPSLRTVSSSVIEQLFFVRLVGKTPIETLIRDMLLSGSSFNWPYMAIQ

The EC50 is the concentration at which the effect is half-maximal. Turning to `Oc1cc(O)c2sc(Nc3ccc(Cl)c(F)c3)nc2n1`, the EC50 in assay [1] was > 167 µM (inactive).
For orientation: AC50 means the midpoint of the concentration-response curve, whichever way the signal moves. By IC50 is commonly meant the concentration needed to halve the response being measured. Consider `c1ccc(CNc2ncnc3ccccc23)cc1`, for which the AC50 in assay [2] is 10.7 µM (active); in assay [3] it was 18.9 µM (active); in [6], 15 µM (active); in assay [8], 5.24 µM (active); in assay [9], 1.5 µM (active); in assay [10], 4.91 µM (active). Further, in assay [11], the AC50 was 3.66 µM (active). Also, in assay [4], the EC50 was > 29.9 µM (inactive). Moreover, the IC50 is 9.32 µM (active) in [5] and 1.25 µM (active) in [7].
In the case of `Cn1cnnc1SC/C(O)=C(\C#N)c1nc2ccccc2[nH]1`, in assay [12], the IC50 was > 100 µM (active).
For the molecule `CCN1CCN(C(=O)c2ccc(C(F)(F)F)cc2)CC1`, the AC50 in assay [13] was > 30 µM (inactive).
What is called CC50 is the concentration at which the toxic effect on the cells reaches its halfway point. As for `O=C1/C(=C/c2ccccc2)SC(=S)N1CC(=O)N1CCCCC1c1cccnc1` (stereo not drawn), the AC50 in [14] was 61.9 µM (active); in assay [15], 70.7 µM (active); in [16] it was 4.37 µM (active); in assay [17] it was 42.1 µM (active). In [18], the CC50 was 14.6 µM (active). The IC50 in assay [19] is > 25 µM (active).
In the case of `CCOC(=O)c1c(NC(=O)CSc2ncccn2)sc2c1CCN(Cc1ccccc1)C2`, the AC50 in assay [20] is > 70 µM (inactive); in [24], > 52 µM (inactive); in assay [25] it was > 52 µM (inactive). Further, the EC50 in assay [21] was 3.07 µM (active); in [22] it was > 60 µM (not active); in assay [23], 1.88 µM (active); in [26], 9.93 µM (active). Also, the IC50 in assay [27] is 5.71 µM (not active).
On to `O=C(CSc1c2c(nc3ccc(Cl)cc13)CCCC2)NCc1ccco1`, for which the AC50 in assay [28] was 8.55 µM (active); in [3], 31.2 µM (active); in assay [29] it was 44.7 µM (active); in assay [9], 5.71 µM (active). Moreover, the IC50 in [30] was > 100 µM (inactive). The CC50 in [18] was > 25 µM (active).
Consider `C[C@@H]1CN([C@H](C)CO)C(=O)c2cccc(NC(=O)c3ccncc3)c2O[C@H]1CN(C)Cc1ccc2c(c1)OCO2`, for which the AC50 in assay [31] was 0.0187 µM (active); in [33], 0.311 µM (active); in [38] it was 39 µM (inactive); in assay [39], 0.08 µM (active). Moreover, the IC50 in [32] was 5.79 µM (inactive); in assay [34] it was 0.049 µM (active); in assay [35], 5.79 µM (inactive); in assay [36], 6.86 µM (inactive); in assay [37], > 100 µM (inactive); in assay [40] it was > 100 µM (inactive).

Values taken from ChEMBL document CHEMBL1201862, “PubChem BioAssay data set” (2004).
